Source: ChEMBL document CHEMBL1126392, “Semisynthesis and biological activity of taxol analogues: baccatin III 13-(N-benzoyl-(2R,3S)-3-(p-tolyl)isoserinate), baccatin III 13-(N-(p-toluoyl)-2R,3S)-3-phenylisoserinate), baccatin III 13-(N-benzoyl-(2R,3S)-3-(p-trifluoromethylphenyl)isoserinate), and baccatin III …” (1992)
Activity calls are given as the source filed them. No cut-off for these calls is given here.

Key:
[1] = tested on: B16; assay: Compound was evaluated for the cytotoxicity against B16 melanoma cells after 40h incubation expressed as ratio relative to that of taxol; type: functional, Mus musculus
[2] = target: Tubulin alpha chain (Sus scrofa) (UniProt P02550); assay: (§1) Concentration which causes polymerization of 50 % of the tubulin present, in 15 min at 37 C, as a ratio in comparison wth taxol (taxol ED50 = 0.7 to 0.8 uM); type: functional
Tubulin alpha chain (Sus scrofa), sequence (P02550 whole entry, looked up): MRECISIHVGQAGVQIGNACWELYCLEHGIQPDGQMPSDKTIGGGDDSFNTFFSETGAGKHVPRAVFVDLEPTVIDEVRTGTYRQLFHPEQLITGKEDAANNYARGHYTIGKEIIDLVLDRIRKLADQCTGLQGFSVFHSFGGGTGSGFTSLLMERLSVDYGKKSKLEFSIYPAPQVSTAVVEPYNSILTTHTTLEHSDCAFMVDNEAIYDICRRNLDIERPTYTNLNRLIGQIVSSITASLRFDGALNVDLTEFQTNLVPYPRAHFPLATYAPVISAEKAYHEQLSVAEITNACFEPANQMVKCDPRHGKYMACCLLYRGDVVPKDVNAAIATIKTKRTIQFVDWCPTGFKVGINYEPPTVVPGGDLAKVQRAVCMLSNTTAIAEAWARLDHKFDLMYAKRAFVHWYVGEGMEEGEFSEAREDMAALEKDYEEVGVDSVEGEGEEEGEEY

[3] = as §1; type: functional
[4] = tested on: B16; assay: Compound was evaluated for the cytotoxicity against B16 melanoma cells after 40h incubation expressed as ratio relative to that of taxol; NA - No cytotoxicity; type: functional, cell-based; settings: Mus musculus

| SMILES | ED50 / ED50 (taxol) [1] | Ratio [2] | Ratio [3] | ED50 / ED50 (taxol) [4] |
| --- | --- | --- | --- | --- |
| CC(=O)O[C@H]1C(=O)[C@@]2(C)[C@H]([C@H](OC(=O)c3ccccc3)[C@]3(O)C[C@H](OC(=O)[C@H](O)[C@@H](NC(=O)c4ccc(C(F)(F)F)cc4)c4ccccc4)C(C)=C1C3(C)C)[C@]1(OC(C)=O)CO[C@@H]1C[C@@H]2O | 17.7 | 6 | – | – |
| CC(=O)O[C@H]1C(=O)[C@@]2(C)[C@H]([C@H](OC(=O)c3ccccc3)[C@]3(O)C[C@H](OC(=O)[C@H](O)[C@@H](NC(=O)c4ccccc4)c4ccccc4)C(C)=C1C3(C)C)[C@]1(OC(C)=O)CO[C@@H]1C[C@@H]2O | – | – | 0.7 | – |
| CC(=O)O[C@H]1C(=O)[C@@]2(C)[C@H]([C@H](OC(=O)c3ccccc3)[C@]3(O)C[C@H](OC(=O)[C@H](O)[C@@H](NC(=O)c4ccccc4)c4ccc(C)cc4)C(C)=C1C3(C)C)[C@]1(OC(C)=O)CO[C@@H]1C[C@@H]2O | 3 | 2.4 | – | – |
| CC(=O)O[C@H]1C(=O)[C@@]2(C)[C@H]([C@H](OC(=O)c3ccccc3)[C@]3(O)C[C@H](OC(=O)[C@H](O)[C@@H](NC(=O)c4ccc(C)cc4)c4ccccc4)C(C)=C1C3(C)C)[C@]1(OC(C)=O)CO[C@@H]1C[C@@H]2O | 1.4 | 1.6 | – | – |
| CC(=O)O[C@H]1C(=O)[C@@]2(C)[C@H]([C@H](OC(=O)c3ccccc3)[C@]3(O)C[C@H](OC(=O)[C@H](O)[C@@H](NC(=O)c4ccccc4)c4ccc(C(F)(F)F)cc4)C(C)=C1C3(C)C)[C@]1(OC(C)=O)CO[C@@H]1C[C@@H]2O | – | inactive | – | inactive |
